The test system of test [1] is H60C_NP1 (His-60 to Cys-60 mutant of nitrophorin 1). The test is described as follows: biochemical. The note with it: H60C_NP1 vs NP1. The test is classed as binding, Rhodnius prolixus.
The target in test [2] is H60C_NP1 (His-60 to Cys-60 mutant of nitrophorin 1) (Rhodnius prolixus, UniProt Q26239, H82C). The test is described as follows: biochemical. The test is classed as binding.
In test [3] the target is NP1 (wild-type nitrophorin 1) (Rhodnius prolixus, UniProt Q26239). The test is described as follows: UV/Vis ligand titration, equilibrium binding constants.
NP1 (wild-type nitrophorin 1), sequence (Q26239 24-207): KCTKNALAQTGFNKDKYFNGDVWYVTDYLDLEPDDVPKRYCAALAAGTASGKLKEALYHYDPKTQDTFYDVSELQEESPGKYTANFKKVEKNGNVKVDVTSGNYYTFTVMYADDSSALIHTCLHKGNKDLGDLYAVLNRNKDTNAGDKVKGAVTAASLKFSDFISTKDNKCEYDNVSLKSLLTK
Where [4] appears, read: read-out: Dissociation constant (Kd) of ligand complex of NP1, 25°C, PBS buffer (50mM Na-phosphate, 100 mM NaCl, pH 7.4), UV/Vis titration.

The structures appear in SMILES notation. Like-named read-outs stand apart in the source and are kept apart here.

This note sets out measurements from article PMC2635096 (Journal of biological inorganic chemistry : JBIC : a …, 2008).

As a reminder, the Kd is the equilibrium constant for the complex coming apart.

H60C_NP1 (His-60 to Cys-60 mutant of nitrophorin 1) (Rhodnius prolixus, UniProt Q26239, H82C), sequence (Q26239 24-207 H82C): as the sequence (Q26239 24-207) above, with H59C counted along it

As for `Cc1c[nH]cn1` [4-Methylimidazole], in test [1], the “Increase in dissociation constant for H60C_NP1 relative to NP1” value is “more than three orders of magnitude”. For the same compound, the results for the Kd in test [2] and in test [3] were 560000 nM and 182 nM, respectively.
As to `c1c[nH]cn1` [Imidazole], the Kd came out at 255 nM in test [3] (setting [4]) and 250 nM in test [3] (read-out: Dissociation constant (Kd) of ligand complex of NP1, 25°C, PBS buffer (50mM Na-phosphate, 100 mM NaCl, pH 7.4), UV/Vis titration, listed as imidazole).
On to `CCCCn1ccnc1` [N-(n-Butyl)imidazole], for which the Kd in test [3] (setting [4]) worked out at 52 nM.
